Measurements: publication PMC9133015 (Nature Communications, 2022)
Several values for one entry are separate records, joined by “and”; a condition that tells them apart may be missing. Equal values may be shown once.

Tests used:
PC-3 cells [1] = assay: Cell cycle assay (PI flow cytometry); type: cell-based, human; details: PC-3, 40 µM, replicates
22Rv1 cells [2] = assay: Cell cycle assay (PI flow cytometry); type: cell-based, human; details: 22Rv1, 20 μM, replicates
DU145 cells [3] = assay: Cell cycle assay (PI flow cytometry); type: cell-based, human; details: DU145, 40 μM, replicates
DU145 xenograft [4] = assay: H&E and Ki67 staining of xenograft tumor tissues; type: in vivo, BALB/c nude mice; details: DU145, reference drug groups, replicates
DU145 xenograft [5] = assay: In vivo antitumor activity, DU145 xenograft mouse model; set-up: species or system BALB/c nude mice; details: for Tumor volume (Fig. 7a): individual mice 1-10, in cm³ (unit assumed)
PC-3 cells [6] = assay: Migration assay (transwell); type: cell-based, human; details: PC-3; 40 µM; replicates
22Rv1 cells [7] = assay: Migration assay (transwell); type: cell-based, human; details: 22Rv1, 20 μM, replicates
DU145 cells [8] = assay: Migration assay (transwell); type: cell-based, human; details: DU145, 40 μM, replicates
22Rv1 cells [9] = assay: Invasion assay (transwell); type: cell-based, human; details: 22Rv1, 20 μM, replicates
PC-3 cells [10] = assay: Cell growth assay (5-day course); type: cell-based, human; details: PC-3, 40 µM, replicates
RWPE-1 cells = assay: Anti-proliferation activity assay (CCK8, 72 h); type: cell-based; details: RWPE1, replicates
PC-3 cells [11] = assay: Apoptosis assay (Annexin V-APC/PI flow cytometry); type: cell-based, human; details: PC-3; 40 µM; replicates
22Rv1 cells [12] = assay: Apoptosis assay (Annexin V-APC/PI flow cytometry); type: cell-based, human; details: 22Rv1, 20 μM, replicates
DU145 cells [13] = assay: Apoptosis assay (Annexin V-APC/PI flow cytometry); type: cell-based, human; details: DU145, 40 μM, replicates
PC-3 cells [14] = assay: Invasion assay (transwell); type: cell-based, human; details: PC-3; 40 µM; replicates
DU145 cells [15] = assay: Invasion assay (transwell); type: cell-based, human; details: DU145, 40 μM, replicates
PC-3 cells [16] = assay: Colony formation assay; type: cell-based, human; details: 40 µM, replicates
PC-3 cells [17] = assay: Anti-proliferation activity assay (CCK8, 72 h); type: cell-based, human; details: PC-3, replicates
DU145 cells [18] = assay: Anti-proliferation activity assay (CCK8, 72 h); type: cell-based, human; details: DU145, replicates
22Rv1 cells [19] = assay: Anti-proliferation activity assay (CCK8, 72 h); type: cell-based, human; details: 22Rv1, replicates
22Rv1 cells [20] = assay: Colony formation assay; type: cell-based, human; details: 22Rv1, 20 μM, replicates
DU145 cells [21] = assay: Colony formation assay; type: cell-based, human; details: DU145, 40 μM, replicates

## CNC(=O)c1ccc(N2C(=S)N(c3ccc(C#N)c(C(F)(F)F)c3)C(=O)C2(C)C)cc1F [enzalutamide]
PC-3 cells [1]; G0/G1
  Cell cycle percentages ( % ) G0/G1: 70.26% and 71.93% and 73.13%
PC-3 cells [1]; G2/M
  Cell cycle percentages ( % ) G2/M: 18.02% and 17.63% and 16.26%
PC-3 cells [1]; S
  Cell cycle percentages ( % ) S: 11.72% and 10.44% and 10.61%
22Rv1 cells [2]
  Cell cycle percentages ( % ) G0/G1: 69.98% and 71.27% and 73.69%
  Cell cycle percentages ( % ) G2/M: 14.06% and 12.61% and 11.06%
  Cell cycle percentages ( % ) S: 15.96% and 16.12% and 15.25%
DU145 cells [3]
  Cell cycle percentages ( % ) G0/G1: 57.27% and 58.94% and 59.05%
  Cell cycle percentages ( % ) G2/M: 23.68% and 22.3% and 24.16%
  Cell cycle percentages ( % ) S: 19.05% and 18.76% and 16.79%
DU145 xenograft [4]
  Positive rate ( % ) (Fig. 7f): 30.71% and 31.3% and 29.1%
DU145 xenograft [5]; DU145 xenograft, 100 mg/kg orally once a day, seven weeks
  antitumor activity (in words): only delayed the tumor growth
DU145 xenograft [5]; Day 1
  Tumor volume (Fig. 7a): 0.06831 and 0.0728 and 0.08842 and 0.07149 and 0.08267 and 0.0792 and 0.07365 and 0.09986 and 0.09475 and 0.08367
DU145 xenograft [5]; Day 3
  Tumor volume (Fig. 7a): 0.1054 and 0.1066 and 0.1367 and 0.1112 and 0.1273 and 0.1097 and 0.1065 and 0.1474 and 0.1553 and 0.1239
DU145 xenograft [5]; Day 5
  Tumor volume (Fig. 7a): 0.1354 and 0.1343 and 0.1923 and 0.144 and 0.1749 and 0.1417 and 0.1334 and 0.2305 and 0.2202 and 0.1878
DU145 xenograft [5]; Day 7
  Tumor volume (Fig. 7a): 0.1816 and 0.1822 and 0.2496 and 0.1945 and 0.234 and 0.2013 and 0.2322 and 0.3186 and 0.2993 and 0.2348
DU145 xenograft [5]; Day 9
  Tumor volume (Fig. 7a): 0.236 and 0.2398 and 0.2946 and 0.2457 and 0.337 and 0.2675 and 0.2935 and 0.3821 and 0.38 and 0.3125
DU145 xenograft [5]; Day 11
  Tumor volume (Fig. 7a): 0.2749 and 0.3065 and 0.4056 and 0.2756 and 0.3984 and 0.3105 and 0.3205 and 0.5039 and 0.4644 and 0.382
DU145 xenograft [5]; Day 13
  Tumor volume (Fig. 7a): 0.3292 and 0.3636 and 0.3775 and 0.3177 and 0.4798 and 0.3714 and 0.3893 and 0.5706 and 0.5218 and 0.4116
DU145 xenograft [5]; Day 15
  Tumor volume (Fig. 7a): 0.4104 and 0.4397 and 0.4958 and 0.3678 and 0.5629 and 0.4479 and 0.4493 and 0.6357 and 0.6164 and 0.4936
DU145 xenograft [5]; Day 17
  Tumor volume (Fig. 7a): 0.473 and 0.4645 and 0.5899 and 0.4301 and 0.6355 and 0.511 and 0.4922 and 0.7115 and 0.6607 and 0.5477
DU145 xenograft [5]; Day 19
  Tumor volume (Fig. 7a): 0.458 and 0.4883 and 0.6303 and 0.4489 and 0.6566 and 0.5391 and 0.5247 and 0.7614 and 0.6322 and 0.6372
DU145 xenograft [5]; reference drug groups, individual mice, in g (unit assumed)
  Tumor weight (Fig. 7c): 1.15 and 1.34 and 1.28 and 1.42 and 1.33 and 1.5 and 1.37 and 1.08 and 1.22 and 1.16
PC-3 cells [6]
  Cell migration (cell number): 1100 cell number and 1076 cell number and 923 cell number
22Rv1 cells [7]
  Cell migration (cell number): 1459 cell number and 1378 cell number and 1390 cell number
DU145 cells [8]
  Cell migration (cell number): 4002 cell number and 3988 cell number and 4105 cell number
22Rv1 cells [9]
  Cell invasion (cell number): 1680 cell number and 1543 cell number
PC-3 cells [10]; day 0
  optical density: 0.269
PC-3 cells [10]; day 1
  optical density: 0.288 and 0.29 and 0.285
PC-3 cells [10]; day 2
  optical density: 0.517 and 0.519 and 0.473
PC-3 cells [10]; day 3
  optical density: 0.701 and 0.705 and 0.6
PC-3 cells [10]; day 4
  optical density: 1.438 and 1.323 and 1.218
RWPE-1 cells; 2.5 uM
  optical density: 0.992 and 1.025 and 0.996
RWPE-1 cells; 5 uM
  optical density: 0.949 and 0.989 and 0.956
RWPE-1 cells; 10 uM
  optical density: 0.858 and 0.962 and 0.898
RWPE-1 cells; 20 uM
  optical density: 0.786 and 0.838 and 0.802
RWPE-1 cells; 40 uM
  optical density: 0.517 and 0.686 and 0.593
RWPE-1 cells; 80 uM
  optical density: 0.393 and 0.433 and 0.408
PC-3 cells [11]
  Apoptosis (%): 5.39% and 5.46% and 5.82%
22Rv1 cells [12]
  Apoptosis (%): 4.36% and 5.45% and 6.23%
DU145 cells [13]
  Apoptosis (%): 11.89% and 10.52% and 9.68%
PC-3 cells [14]
  Cell invasion (cell number): 2300 cell number and 2405 cell number and 2379 cell number
DU145 cells [15]
  Cell invasion (cell number): 1897 cell number and 1923 cell number and 1867 cell number
PC-3 cells [16]
  Colony formation (cell number): 160 cell number and 145 cell number
PC-3 cells [17]; 2.5 uM
  optical density: 1.074 and 1.037 and 1.019
PC-3 cells [17]; 5 uM
  optical density: 1.05 and 1.004 and 0.976
PC-3 cells [17]; 10 uM
  optical density: 1.021 and 0.964 and 0.924
PC-3 cells [17]; 20 uM
  optical density: 0.935 and 0.906 and 0.894
PC-3 cells [17]; 40 uM
  optical density: 0.769 and 0.721 and 0.688
PC-3 cells [17]; 80 uM
  optical density: 0.516 and 0.456 and 0.403
DU145 cells [18]; 2.5 uM
  optical density: 1.167 and 1.145 and 1.124
DU145 cells [18]; 5 uM
  optical density: 1.127 and 1.118 and 1.073
DU145 cells [18]; 10 uM
  optical density: 1.073 and 1.05 and 1.035
DU145 cells [18]; 20 uM
  optical density: 0.93 and 0.926 and 0.882
DU145 cells [18]; 40 uM
  optical density: 0.602 and 0.626 and 0.546
DU145 cells [18]; 80 uM
  optical density: 0.325 and 0.374 and 0.256
22Rv1 cells [19]; 2.5 uM
  optical density: 0.81 and 0.838 and 0.791
22Rv1 cells [19]; 5 uM
  optical density: 0.775 and 0.808 and 0.759
22Rv1 cells [19]; 10 uM
  optical density: 0.619 and 0.678 and 0.623
22Rv1 cells [19]; 20 uM
  optical density: 0.455 and 0.528 and 0.472
22Rv1 cells [19]; 40 uM
  optical density: 0.22 and 0.347 and 0.272
22Rv1 cells [19]; 80 uM
  optical density: 0.191
22Rv1 cells [20]
  Colony formation (cell number): 560 cell number and 530 cell number and 570 cell number
DU145 cells [21]
  Colony formation (cell number): 205 cell number and 218 cell number and 226 cell number
